BindingDB's records for doi:10.1016/j.bmcl.2009.07.031 (Merck Research Laboratory, 2009)

Columns and labels:
[1] = Inhibition of HIV1 reverse transcriptase by SPA assay
[2] = Inhibition of HIV1 reverse transcriptase Y181C mutant by SPA assay

Structure (SMILES)	IC50 [1]	IC50 [2]
NS(=O)(=O)c1ccc(NC(=O)CSC(=O)N2CCCc3cc(Cl)ccc32)c(Cl)c1	8 nM	–
N#Cc1ccc(NC(=O)CSC(=O)N2CCCc3cc(Cl)cc(Cl)c32)c(Cl)c1	7 nM	95 nM
Cc1cc(C)c(N(C)C(=O)SCC(=O)Nc2ccc(S(N)(=O)=O)cc2Cl)c(C)c1	8 nM	80 nM
NS(=O)(=O)c1ccc(NC(=O)COC(=O)N2CCCc3cc(Cl)cc(Cl)c32)c(Cl)c1	19 nM	116 nM
NCCCNC(=O)c1ccc(NC(=O)CSC(=O)N2CCCc3cc(Cl)cc(Cl)c32)c(Cl)c1	2 nM	7 nM
O=C(CSC(=O)N1CCCc2cc(Cl)cc(Cl)c21)Nc1ccc(C(=O)NCc2ccccc2)cc1Cl	2 nM	4 nM
NS(=O)(=O)c1ccc(NC(=O)CNC(=O)N2CCCc3cc(Cl)cc(Cl)c32)c(Cl)c1	336 nM	–
Cc1ccc2c(c1)CCCN2C(=O)SCC(=O)Nc1ccc(S(N)(=O)=O)cc1Cl	–	1300 nM
NS(=O)(=O)c1ccc(NC(=O)CSC(=O)N2CCCc3cc(Cl)cc(Cl)c32)c(Cl)c1	–	4 nM
O=C(CSC(=O)N1CCCc2cc(Cl)cc(Cl)c21)Nc1ccccc1Cl	4 nM	175 nM
CS(=O)(=O)c1ccc(NC(=O)CSC(=O)N2CCCc3cc(Cl)cc(Cl)c32)c(Cl)c1	4 nM	11 nM
Cc1cccc2c1N(C(=O)SCC(=O)Nc1ccc(S(N)(=O)=O)cc1Cl)CCC2	6 nM	61 nM
NS(=O)(=O)c1ccc(NC(=O)CCC(=O)N2CCCc3cc(Cl)cc(Cl)c32)c(Cl)c1	194 nM	–
NS(=O)(=O)c1ccc(NC(=O)CSC(=O)N2CCCc3cccc(Cl)c32)c(Cl)c1	2 nM	31 nM
